From patent US11447534B2, “Peptide complex with immunodulatory and anti-inflammatory function” (NATIONAL INSTITUTE OF IMMUNOLOGY, priority 2018, dated 2022)

What was measured:
RAW264.7 macrophages = experiment: qPCR of Cd74, Cd36 in serum starved macrophages; assay type: cell-based, murine; conditions: unstimulated RAW264.7 macrophages, with respect to basal
[1] = system: ConA stimulated EOC20 microglia; experiment: F-actin staining and qPCR in ConA stimulated EOC20 microglia; assay type: cell-based
Description: To determine the immunomodulatory effect of A-O complex, serum starved macrophages were exposed to the complex. Macrophages (1×10^6 cells) were serum starved for 30 min after which cells were exposed to A-O complex. After 1 hour, cells were washed with 1×PBS (pH 7.4) and harvested using cell dissociation solution. Then the cells were suspended in ice cold staining buffer (100 μl) and centrifuged at 1000 rpm for 5 min at 4° C. The cells were resuspended in 100 μl ice cold staining buffer for 10 min at 2-8° C. and pellet resuspended in 50 μl staining media. To this 2 μl of Fc block or anti-mouse CD16/CD32 was added for 10 mins and washed with staining buffer. The cells were resuspended in 50 μl of staining buffer and incubated with fluorescent-tagged CD36 antibody (e-biosciences) for 25-30 min on ice. The excess stain was removed by washing and pelleting down using staining buffer thrice by spinning and removal of staining buffer. The cell suspension was fixed 1:1 ratio (staining buffer:fixative) and analysed within 48 h in ARIA3 DIVA software version 6.1. Further, expression of MHC-II, and CD-36, was also determined in the microglial cells via qPCR. For this RNA extraction was performed using RNA extraction kit from Qiagen according to the manufacturer's instruction. cDNA synthesis was performed using cDNA synthesis kit from Qiagen. To perform qPCR, 10 ng cDNA (per well) was amplified using the Light Cycler 480 Sybergreen I Master reagent (Roche Diagnostics, Indianapolis, Ind.) and primers (commercially purchased from SABiosciences, Qiagen) in the Light Cycler 480 (Roche Diagnostics, Switzerland) under following cycling conditions: 3 min at 95° C., 15 sec at 95° C., 20 sec at 60° C., 25 sec at 72° C. for 40 cycles. Following amplification, fold changes in gene expression versus β-actin (reference) analysis was determined using the 2^ΔΔCT(Livak) method.
To determine the immunomodulatory effect of A-O complex in microglia, EOC20 microglial cells from ATCC (CRL-2469) was employed. The cells were cultured in high glucose Dulbecco's […] Essential Media (DMEM) containing 4 mM L-glutamine, 10% fetal bovine serum (FBS) and 20% LADMAC conditioned media. LADMAC media was prepared by growing 80% confluent LADMAC cell line from ATCC (CRL-2420) in alpha-minimal essential media supplemented with 10% FBS for 5 days. The spent supernatant was centrifuged at 1000 rpm for 10 min and the supernatant was filtered as used as LADMAC media. To determine the morphological changes in microglia upon exposure to A-O complex, F-actin confocal microscopy was performed. […]
Next, immunomodulatory effect of A-O complex on activated microglial cells was determined. […] The immunomodulatory effect was assessed via F-actin staining and qPCR.

[2] = ConA stimulated microglia, qPCR

## A-O complex: peptide complex of 100 μM Abeta1-42 (SEQ ID NO: 1) and 3 ng Glu-OC (SEQ ID NO: 2), incubated at 37° C. for 4 hours
RAW264.7 macrophages
  increase in mRNA level of Cd36: 8 fold
  increase in mRNA level of Cd74 (MHC-II): 3 fold
[1]; [2]
  mRNA level of Cd11b: normalized
  mRNA level of Cd36: induced
  mRNA level of Tnfa: normalized
[1]; EOC20 microglia, ConA 30 mins then A-O complex 1 hour
  microglia morphology (F-actin): presence of cells with ramified process
